The test system of data set [1] is rice leaf rollers (Cnaphalocrocis medinalis) fourth instar larvae. Kind of data set: Toxicity to rice leaf roller fourth instar larvae by the leaf-dipping method. Type of data set: in vivo. The following applies: for mortality at 5 ppm: Cnaphalocrocis medinalis, foliar, corrected mortality grade, 48 h, rice leaf dip. As to the method: The toxicity activity of part of the compounds on the fourth instar larvae of the rice leaf rollers (Cnaphalocrocis medinalis) is determined by the leafdipping method.
The test agents of the compounds in Table 2 were weighed out accurately with an electronic analytical balance, and the original drug was dissolved completely in dimethylsulfoxide to 10000 ppm solution and then diluted with 0.1% aqueous solution of Triton to 5 ppm solution. And (4) selecting rice plants which are planted in a laboratory and are not contacted with the liquid medicine, and cutting leaves of the rice plants to about 8 cm. Soaking the leaves in the prepared liquid medicine for 15 seconds, taking out and drying, wrapping the roots with absorbent cotton, and putting the wrapped roots into 9 cm culture dishes, wherein 3-5 rice leaves are placed in each culture dish. The water bamboo sections used as the feed for larvae are peeled off gently, and the four-instar larvae of the same standard are placed in culture dishes with 10 heads per dish and 4 repetitions per concentration for a total of 40 heads. After the inoculation, the culture dish is placed in a constant temperature culture room with the temperature of 26±1° C. and the illumination period of 16 (D): 8 (L) h, and the number of dead and live larvae is investigated after 48 h. A blank and a control of compound K1 and compound K2 were also provided.
The mortality was calculated according to the following formula 1, then the corrected mortality was calculated according to the following formula 2, and finally the rating criteria shown in table 2 were combined for ranking according to the corrected mortality value, and the specific results are shown in table 5.
(§1) mortality %=(number of dead insects/total number of insects)×100% Equation 1;
(§2) corrected mortality %=[(treatment-control mortality)/(1-control mortality)]×100% Equation 2.

Data set [2] relates to diamondback moth (Plutella xylostella) second instar larvae. In words: Toxicity to diamondback moth larvae by the leaf-dipping method. The format is in vivo. Conditions: for mortality at 0.25 ppm / mortality at 1 ppm: Plutella xylostella, in Brassica oleracea, foliar; for mortality at 0.25 ppm / mortality at 1 ppm / mortality (1 ppm) 72 h: corrected mortality grade, cabbage leaf dip. Here is the method:
Determining the toxicity activity of part of compounds on diamondback moth (Plutella xylostella) instar larvae by the leafdipping method.
The test agents of the compounds in Table 2 were weighed out accurately with an electronic analytical balance, and the original drug was dissolved in a 10000 ppm solution with dimethyl sulfoxide as the solvent and then diluted with 0.1% of Triton solution to 1 ppm and 0.25 ppm solutions. Taking the cabbage not contacted with the liquid medicine, and cutting the leaves into 6 cm-diameter circular leaves. Soaking the leaves in the prepared liquid medicine for 15 seconds, taking out and drying, and placing the leaves into 6 cm culture dishes, wherein 1 cabbage leaf is placed in each culture dish. The same standard second instar larvae were placed in petri dishes with 10 heads per dish and 4 replicates per concentration for a total of 40 heads. After inoculation, the culture dish is placed in a constant-temperature culture chamber with the temperature of 25±1° C. and the illumination period of 16 (D) to 8 (L) h, and the number of dead and live larvae is investigated after 48 h and 72 h. A blank and a control of compound K1 and compound K2 were also provided.
The mortality is calculated according to the following formula 1, then the corrected mortality is calculated according to the formula 2, and finally the classification is carried out according to the corrected mortality value and the rating standard shown in the table 2, and the specific results are shown in the tables 3 and 4.
as §1, §2

The mark [3] stands for this setting: 48 h, 48 h, read-out: mortality (1 ppm) 48 h.
Setting [4] is: 72 h, 72 h, read-out: mortality (1 ppm) 72 h.

Read-outs that look alike come from different tables or passages of the source.

In general, mortality refers to the share of the test organisms that died.

In data set [1], `Cc1cc(C2=NOC(c3cc(Cl)c(F)c(Cl)c3)(C(F)(F)F)C2)ccc1C(=O)Nc1cnn(C(C)C)c1` (stereo not drawn) [Compound 127] returned a mortality at 5 ppm of 100%. In addition, in data set [1] (concentration of 5 ppm), the “lethality to Cnaphalocrocis medinalis” value is 100%. For the same compound, the mortality at 0.25 ppm in data set [2] (48 h) was 100%. The mortality at 1 ppm in data set [2] (setting [3]) and in data set [2] (setting [4]) was 100% each time. The “lethality to Plutella xylostella” value in data set [2] (concentration of 0.25 ppm) turned out to be 100%.

Turning to `Cc1cc(C2=NOC(c3cc(Cl)c(F)c(Cl)c3)(C(F)(F)F)C2)ccc1C(=O)Nc1cnn(CC2CC2)c1` (stereo not drawn) [Compound 133], the mortality at 1 ppm was 80 to 90% in data set [2] (setting [3]) and 100% in data set [2] (setting [4]). Take `Cc1cc(C2=NOC(c3cc(Cl)c(F)c(Cl)c3)(C(F)(F)F)C2)ccc1C(=O)Nc1cnn(CC2CCC2)c1` (stereo not drawn) [Compound 134]: the mortality at 1 ppm in data set [2] (setting [4]) was 70 to 80%. For the compound `Cc1cc(C2=NOC(c3cc(Cl)c(F)c(Cl)c3)(C(F)(F)F)C2)ccc1C(=O)Nc1cnn(C2CCCCC2)c1` (stereo not drawn) [Compound 137], in data set [2] (72 h), the “mortality (1 ppm) 72 h” value is reported as “C (80% to less than 90%)”. Turning to `Cc1cc(C2=NOC(c3cc(Cl)c(F)c(Cl)c3)(C(F)(F)F)C2)ccc1C(=O)Nc1cnn(Cc2ccccc2)c1` (stereo not drawn) [Compound 139], in data set [2] (setting [4]), the mortality at 1 ppm is 50 to 70%.

With `CC(=O)n1cc(NC(=O)c2ccc(C3=NOC(c4cc(Cl)c(F)c(Cl)c4)(C(F)(F)F)C3)cc2C)cn1` (stereo not drawn) [Compound 140], the mortality at 1 ppm in data set [2] (setting [4]) was 50 to 70%.

Take `Cc1cc(C2=NOC(c3cc(Cl)c(F)c(Cl)c3)(C(F)(F)F)C2)ccc1C(=O)Nc1cnn(C(=O)N(C)C)c1` (stereo not drawn) [Compound 149]: the mortality at 1 ppm in data set [2] (setting [3]) and in data set [2] (setting [4]) was 100% each time. In the case of `CCN(CC)C(=O)n1cc(NC(=O)c2ccc(C3=NOC(c4cc(Cl)c(F)c(Cl)c4)(C(F)(F)F)C3)cc2C)cn1` (stereo not drawn) [Compound 150], the mortality at 1 ppm in data set [2] (setting [3]) is 80 to 90%; in data set [2] (setting [4]) it was 100%. `Cc1cc(C2=NOC(c3cc(Cl)c(F)c(Cl)c3)(C(F)(F)F)C2)ccc1C(=O)Nc1cnn(S(C)(=O)=O)c1` (stereo not drawn) [Compound 151]: in data set [2] (setting [4]), the mortality at 1 ppm was 70 to 80%. Turning to `CCCS(=O)(=O)n1cc(NC(=O)c2ccc(C3=NOC(c4cc(Cl)c(F)c(Cl)c4)(C(F)(F)F)C3)cc2C)cn1` (stereo not drawn) [Compound 153], the mortality at 1 ppm in data set [2] (setting [3]) lay in the range of 70 to 80%; in data set [2] (setting [4]) it was 90 to 100%.

In the case of `Cc1cc(C2=NOC(c3cc(Cl)c(F)c(Cl)c3)(C(F)(F)F)C2)ccc1C(=O)Nc1cnn(S(=O)(=O)C(C)C)c1` (stereo not drawn) [Compound 154], the figures for the mortality at 1 ppm in data set [2] (setting [3]) and in data set [2] (setting [4]) were 80 to 90% and 100%, respectively. `Cc1cc(C2=NOC(c3cc(Cl)c(F)c(Cl)c3)(C(F)(F)F)C2)ccc1C(=O)Nc1cnn(S(=O)(=O)c2ccccc2)c1` (stereo not drawn) [Compound 155]: the mortality at 1 ppm in data set [2] (setting [4]) lay in the range of 50 to 70%. For `Cc1cc(C2=NOC(c3cc(Cl)c(F)c(Cl)c3)(C(F)(F)F)C2)ccc1C(=O)Nc1cnn(S(=O)(=O)C2CCCCC2)c1` (stereo not drawn) [Compound 157], the figures for the mortality at 1 ppm in data set [2] (setting [3]) and in data set [2] (setting [4]) were 90 to 100% and 100%, respectively. As to `Cc1cc(C2=NOC(c3cc(Cl)c(F)c(Cl)c3)(C(F)(F)F)C2)ccc1C(=O)Nc1c(C)n[nH]c1C` (stereo not drawn) [Compound 158], the mortality at 1 ppm in data set [2] (setting [3]) was 50 to 70%; in data set [2] (setting [4]), 90 to 100%. On to `Cc1cc(C2=NOC(c3cc(Cl)c(F)c(Cl)c3)(C(F)(F)F)C2)ccc1C(=O)Nc1c(C)nn(C)c1C` (stereo not drawn) [Compound 159], for which the “mortality (1 ppm) 72 h” value in data set [2] (72 h) is recorded as “B (90% to less than 100%)”. Take `Cc1cc(C2=NOC(c3cc(Cl)c(F)c(Cl)c3)(C(F)(F)F)C2)ccc1C(=O)Nc1c(C)nn(C)c1C` (stereo not drawn) [Compound 160]: the values for the mortality at 1 ppm in data set [2] (setting [3]) and in data set [2] (setting [4]) were 50 to 70% and 70 to 80%, respectively. `CCCn1nc(C)c(NC(=O)c2ccc(C3=NOC(c4cc(Cl)c(F)c(Cl)c4)(C(F)(F)F)C3)cc2C)c1C` (stereo not drawn) [Compound 161]: in data set [2] (setting [4]), the mortality at 1 ppm lay within 90 to 100%.

`Cc1cc(C2=NOC(c3cc(Cl)c(F)c(Cl)c3)(C(F)(F)F)C2)ccc1C(=O)Nc1c(C)nn(C(C)C)c1C` (stereo not drawn) [Compound 162]: the mortality at 1 ppm was 50 to 70% in data set [2] (setting [3]) and 100% in data set [2] (setting [4]). Take `CC(=O)n1nc(C)c(NC(=O)c2ccc(C3=NOC(c4cc(Cl)c(F)c(Cl)c4)(C(F)(F)F)C3)cc2C)c1C` (stereo not drawn) [Compound 168]: the mortality at 1 ppm in data set [2] (setting [4]) fell in the range of 90 to 100%. Same read-out and setting: then `CCC(=O)n1nc(C)c(NC(=O)c2ccc(C3=NOC(c4cc(Cl)c(F)c(Cl)c4)(C(F)(F)F)C3)cc2C)c1C` (stereo not drawn) [Compound 169], with 80 to 90%; and `CCCC(=O)n1nc(C)c(NC(=O)c2ccc(C3=NOC(c4cc(Cl)c(F)c(Cl)c4)(C(F)(F)F)C3)cc2C)c1C` (stereo not drawn) [Compound 170], with 80 to 90%; and `Cc1cc(C2=NOC(c3cc(Cl)c(F)c(Cl)c3)(C(F)(F)F)C2)ccc1C(=O)Nc1c(C)nn(C(=O)C(C)C)c1C` (stereo not drawn) [Compound 171], with 80 to 90%. On the same count and under the same terms, then `Cc1cc(C2=NOC(c3cc(Cl)c(F)c(Cl)c3)(C(F)(F)F)C2)ccc1C(=O)Nc1c(C)nn(C(=O)C2CCC2)c1C` (stereo not drawn) [Compound 174], with 70 to 80%.

`Cc1cc(C2=NOC(c3cc(Cl)c(F)c(Cl)c3)(C(F)(F)F)C2)ccc1C(=O)Nc1c(C)nn(C(=O)N(C)C)c1C` (stereo not drawn) [Compound 177]: in data set [2] (setting [4]), the mortality at 1 ppm was 80 to 90%. In data set [1], `Cc1cc(C2=NOC(c3cc(Cl)cc(Cl)c3)(C(F)(F)F)C2)ccc1C(=O)Nc1ccn(C)n1` (stereo not drawn) [Compound K1, reference compound] showed a mortality at 5 ppm below 50%. In data set [2] (48 h), the mortality at 0.25 ppm is below 50%. Also, the mortality at 1 ppm in data set [2] (setting [3]) and in data set [2] (setting [4]) was below 50% in each case.

Source of the values: patent US20260026504A1, “COMPOUND […] STRUCTURE, APPLICATION, AND INSECTICIDE” (Anhui Shengfeng Biochemical Co., Ltd, priority 2022, published 2026).
